The values below come from PMC9599816, “Cholesterol Chip for the Study of Cholesterol–Protein Interactions Using SPR” (Biosensors, 2022).

One assay addresses T1, PTP1B (Homo sapiens, UniProt P18031).
T1 construct: gene PTPN1
In words: biochemical.

In assay [1] the target is T2, hedgehog protein, HhC (C-terminal cholesterol-binding domain) (Drosophila melanogaster, UniProt Q02936, H329A).
T2 construct: gene hh; HhC autoprocessing mutant, C-terminal fusion to SUMO-HIS8
In words: SPR, biotinylated cholesterol immobilized on streptavidin chip, […] Langmuir fit.

T2 sequence (Q02936 258-471 H329A): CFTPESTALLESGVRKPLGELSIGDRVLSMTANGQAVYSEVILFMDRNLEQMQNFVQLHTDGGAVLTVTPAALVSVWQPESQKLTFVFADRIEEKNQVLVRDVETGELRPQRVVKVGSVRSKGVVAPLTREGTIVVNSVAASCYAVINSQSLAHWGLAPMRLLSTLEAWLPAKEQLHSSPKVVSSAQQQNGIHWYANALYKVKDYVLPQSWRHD
T1 sequence (P18031 1-321): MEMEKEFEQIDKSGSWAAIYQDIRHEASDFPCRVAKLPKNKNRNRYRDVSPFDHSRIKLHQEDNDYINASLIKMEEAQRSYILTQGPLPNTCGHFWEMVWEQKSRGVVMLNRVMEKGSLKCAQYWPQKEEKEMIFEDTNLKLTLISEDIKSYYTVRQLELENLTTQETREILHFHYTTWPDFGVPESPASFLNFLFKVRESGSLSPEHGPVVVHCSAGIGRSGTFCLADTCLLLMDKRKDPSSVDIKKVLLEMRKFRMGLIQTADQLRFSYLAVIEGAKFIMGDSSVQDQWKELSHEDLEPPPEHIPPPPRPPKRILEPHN

As usually defined, the Kd is the constant that tells how readily two partners part at equilibrium. Read a low Kd as tighter binding. As to `CC(CCC[C@@H](C)[C@H]1CC[C@H]2[C@@H]3CC=C4C[C@@H](O)CC[C@]4(C)[C@H]3CC[C@]12C)c1cn(CCOCCOCCOCCNC(=O)CCCCC2SCC3NC(=O)NC32)nn1` (some centres unmarked) [biotinylated cholesterol], the Kd at PTP1B was about 85 nM; in assay [1], about 14 nM.
